Measured values from publication PMC7235863, “Benzamide Derivatives Targeting the Cell Division Protein FtsZ: Modifications of the Linker and the Benzodioxane Scaffold and Their Effects on Antimicrobial Activity” (Antibiotics, 2020).
Converted amounts (≈) assume the structure as drawn. Where two headings read alike, the source gives them in different places.

Legend:
[1] = tested on: MDRSA 11.7; assay: Broth microdilution MIC, MDRSA 11.7; format: cell-based, Staphylococcus aureus; conditions: Staphylococcus aureus, read-out: MIC
Method: (§1) Antimicrobial activity of 1–8 was evaluated on both Gram-positive (Table 3) and Gram-negative (Table 4) species. As a continuation of our previous studies, considering the Gram-positive S. aureus, we chose a methicillin-sensitive S. aureus (MSSA, ATCC 29213), a methicillin-resistant S. aureus (MRSA, ATCC 43300) and two clinical isolates of S. aureus showing multi-drug resistance (MDRSA).
(§2) Antibacterial activities of compounds were determined by the broth microdilution method against MDRSA 11.7, MDRSA 12.1 and E. coli N43 following the European Committee on Antimicrobial Susceptibility Testing (EUCAST) recommendations and Clinical and Laboratory Standards Institute (CLSI) guidelines. Strains MDRSA ST-11.7 and ST-12.1 were obtained through the interlaboratory control organized by the EU Reference Laboratory—Antimicrobial Resistance. Only data on their resistance to antibiotics are known, but other data are not available.
(§3) Bacterial suspension of specific bacterial strain equivalent to 0.5 McFarland turbidity standard was diluted with cation-adjusted Mueller Hinton broth with TES (Thermo Fisher Scientific), to obtain a final inoculum of 10^5 CFU/mL. Compounds dissolved in DMSO and inoculum were mixed together and incubated for 20 h at 37 °C. After incubation, the minimal inhibitory concentration (MIC) values were determined by visual inspection as the lowest dilution of compounds showing no turbidity. Tetracycline was used as a positive control on every assay plate.

[2] = tested on: MDRSA 12.1; assay: Broth microdilution MIC, MDRSA 12.1; format: cell-based, Staphylococcus aureus; conditions: Staphylococcus aureus, read-out: MIC
Method: as §1, §2, §3

[3] = tested on: MRSA ATCC 43300; assay: MIC/MBC determination in LB broth, MRSA; format: cell-based, Staphylococcus aureus; conditions: for MBC / MIC: Staphylococcus aureus; for MBC: read-out: MBC; for MIC: read-out: MIC
Method: (§4) Normal human lung fibroblasts (MRC-5) were grown in Dulbecco’s modified Eagle’s medium (DMEM) supplemented with 10% calf serum, 100 U/mL penicillin and […] streptomycin in an incubator at 5% CO2 atmosphere and 37 °C. The Gram-positive Staphylococcus aureus (methicillin-sensitive, MSSA ATCC 29213, and methicillin-resistant, MRSA ATCC 43300) and the Gram-negative Escherichia coli (ESBL, extended-spectrum beta-lactamase-positive) bacterial cells were grown in Luria-Bertani broth (LB) at 37 °C under constant shaking at 300 rpm.
(§5) The antibacterial activity was tested on both a methicillin-sensitive and a methicillin-resistant S. aureus strain, and an ESBL E. coli clinical isolate. All the compounds were dissolved at the final concentration of 20 mg/mL in dimethyl sulfoxide (DMSO) and serially diluted in LB. Fresh cell cultures were used at 10^5 cells/mL in a final volume of 2 mL. Each bacterial sample was grown with different compound concentrations that ranged from 100 to 0.1 μg/mL. […] To determine the MBC, the bacteria were then washed three times with LB, centrifuged at 900× g for 10 min at 4 °C, and the pellet resuspended in fresh LB. After overnight incubation at 37 °C, the absence of growth was confirmed by OD measurement. The presence of antibacterial activity, at any concentration tested, was established for values of absorbance < 0.1 OD600. All tests were performed in quadruplicate and for each series of experiments, both positive (no compounds) and negative (no bacteria) controls were included.

[4] = tested on: MSSA ATCC 29213; assay: MIC/MBC determination in LB broth, MSSA; format: cell-based, Staphylococcus aureus; conditions: for MBC/MIC / MBC / MIC: MSSA ATCC 29213; for MBC / MIC: Staphylococcus aureus; for MBC: read-out: MBC; for MIC: read-out: MIC
Method: as §4, §5

[5] = tested on: E. coli ATCC 25922; assay: MIC on reference sensitive E. coli; format: cell-based, Escherichia coli; conditions: Escherichia coli, ATCC25922
From the text: (§6) We thus tested 1–8 and III initially on the reference sensitive E. coli ATCC 25922 and on the extended-spectrum of beta-lactamase-positive (ESBL) E. coli, as Gram-negative bacteria. Moreover, in order to evaluate the susceptibility of this series of compounds to the efflux pump AcrAB, we employed also the above-mentioned E. coli N43, which is the knockout of the AcrAB cell membrane pump.

[6] = tested on: E. coli N43; assay: Broth microdilution MIC, efflux-defective E. coli N43; format: cell-based, Escherichia coli; conditions: Escherichia coli, N43
Method: as §6, §2, §3

[7] = tested on: ESBL E. coli; assay: MIC in LB broth, ESBL E. coli clinical isolate; format: cell-based, Escherichia coli; conditions: Escherichia coli, read-out: MIC
Method: as §6, §4, §5

[8] = tested on: Methicillin Sensitive S. aureus; conditions: cited from earlier work; for MIC: Methicillin Sensitive S. aureus, ref 10 (Z2, Z3), 11 (TXY436), 12 (I, II); for MIC vs. MSSA: chromanes ref 22
[9] = tested on: E. coli AcrAB–; conditions: ref 10 (Z2, Z3), 11 (TXY436), 12 (I, II); cited from earlier work
[10] = tested on: S. aureus ATCC 43300; assay: Transmission electron microscopy of septum formation; format: cell-based, Staphylococcus aureus; conditions: MRSA cultured overnight; 1 at 1 μg/mL, DFNB at 0.25 μg/mL
From the text: After having assessed the antimicrobial profile of this class of derivatives, we chose 1 to be further analyzed by transmission electron microscopy (TEM), in order to evaluate any morphological changes in septum formation, as done before as a simple FtsZ target validation assay. We cultured S. aureus ATCC 43300 alone or in the presence of 1 and 2,6-difluorononyloxybenzamide (DFNB) as a reference FtsZ inhibitor (positive control). […] These are the typical effects of the inhibition of FtsZ assembly and consequently of the block of bacterial cell division.
S. aureus ATCC 43300 (10^9 cells/mL) were cultured in the presence of 1 and DFNB (positive control), at the same concentrations used for optical microscopy and, after 16 h incubation at 37 °C, the cells were harvested and processed for transmission electron microscopy, as already described. Untreated S. aureus was used as negative control. After centrifugation at 3100× g for 5 min at room temperature, pelleted bacteria were fixed in 2.5% glutaraldehyde (Polysciences, Warrington, PA) in 0.1 M Na cacodylate buffer, pH 7.4, for 1 h at 4 °C, rinsed twice and post-fixed in Na cacodylate-buffered 1% OsO4 for 1 h at 4 °C. The samples were dehydrated through a series of graded ethanol solutions and propylene oxide and embedded in Poly/Bed 812 resin mixture. […]

[11] = tested on: Sa cells; set-up: method as in PMID 31750973; conditions: Sa cells incubated with the compounds ref 12; cited from earlier work
[12] = tested on: E. coli N43; set-up: method as in PMID 31750973; conditions: E. coli N43 (AcrAB knockout); in-house reference compounds ref 12; cited from earlier work
[13] = tested on: ESBL E. coli; set-up: method as in PMID 31750973; conditions: in-house reference compounds ref 12; cited from earlier work
[14] = tested on: E. coli ATCC 25922; set-up: method as in PMID 31750973; conditions: in-house reference compounds ref 12; cited from earlier work

SMILES: NC(=O)c1c(F)ccc(OCCCC2COc3ccccc3O2)c1F (stereo not shown) [Compound 8]
- MIC [1]: 32 µg/mL (≈ 91.6 µM)
- MIC [2]: 16 µg/mL (≈ 45.8 µM)
- MBC/MIC [3]: 10
- MBC [3]: 100 µg/mL (≈ 286 µM)
- MIC [3]: 10 µg/mL (≈ 28.6 µM)
- MBC/MIC [4]: 10
- MBC [4]: 100 µg/mL (≈ 286 µM)
- MIC [4]: 10 µg/mL (≈ 28.6 µM)
- MIC [5]: > 100 µg/mL
- MIC [6]: > 128 µg/mL
- MIC [7]: > 100 µg/mL

SMILES: CCN(CC)CCNc1nc(/C=C/c2ccc(Cl)cc2)nc2cc3ccccc3cc12 [Compound Z3]
- MIC [8]: 2.1 µg/mL (≈ 4.87 µM)
- MIC [9]: 4 µg/mL (≈ 9.28 µM)

SMILES: CCCCCCCCCOc1ccc(F)c(C(N)=O)c1F [DFNB, 2,6-difluorononyloxybenzamide, reference compound]
- Morphological changes in septum formation (TEM) [10]: strong alterations in the septum formation and bacterial desegregation

SMILES: NC(=O)c1c(F)ccc(OCC2COc3ccccc3O2)c1F (stereo not shown) [III, reference compound]
- MIC [1]: 16 µg/mL (≈ 49.8 µM)
- MIC [2]: 8 µg/mL (≈ 24.9 µM)
- MBC/MIC [3]: 16
- MBC [3]: 80 µg/mL (≈ 249 µM)
- MIC [3]: 5 µg/mL (≈ 15.6 µM)
- MBC/MIC [4]: 16
- MBC/MIC ratios ([4]; S. aureus, as summarised in the text from Table 3): 16
- MBC [4]: 80 µg/mL (≈ 249 µM)
- MIC [4]: 5 µg/mL (≈ 15.6 µM)
- MIC [5]: > 100 µg/mL
- MIC [6]: > 128 µg/mL
- MIC [7]: > 100 µg/mL

SMILES: Cc1nc(-c2ccc3c(c2)OC(COc2ccc(F)c(C(N)=O)c2F)CO3)no1 (stereo not shown) [II]
- MIC [8]: 0.6 µg/mL (≈ 1.49 µM)
- MIC [9]: 16 µg/mL (≈ 39.7 µM)
- Morphometric analysis by TEM [11]: significant elongation in cellular dimension, bacterial swelling and cell desegregation
- MIC [12]: 16 µg/mL (≈ 39.7 µM)
- MIC [13]: >100 µg/mL
- MIC [14]: >100 µg/mL

SMILES: NC(=O)c1c(F)ccc(OCC2CCc3ccccc3O2)c1F (stereo not shown) [IV]
- MIC vs. MSSA [8]: 5 µg/mL (≈ 15.7 µM)

SMILES: NC(=O)c1c(F)ccc(OCC2COc3ccccc3C2)c1F (stereo not shown) [V]
- MIC vs. MSSA [8]: 100 µg/mL (≈ 313 µM)
